Data from patent publication US20230035592A1, “DIRECT AMPK ACTIVATOR COMPOUNDS COMBINED WITH INDIRECT AMPK ACTIVATOR COMPOUNDS, COMPOSITIONS, METHODS AND USES THEREOF” (SOCIETE DES PRODUITS NESTLE S.A., priority 2019, published 2023).

Tests used:
AMPK = test: pACC HTRF (Cisbio) assay, phosphorylation of ACC in U-2 OS Flp-In T-REx cells; type: cell-based; conditions: for phosphorylation of the AMPK substrate ACC (ratio 665/620 nm): varying concentrations, 30 mins at 37 C
Description: U-2 OS cells were treated with varying concentrations of compound 1 for 30 mins at 37 C. Phosphorylation of ACC was assessed using the HTRF Cisbio (pACC kit).
U-2 OS cells were treated with varying concentrations of compound 1 for 30 mins at 37 C in the presence or absence of 11 μM of compound 2. Phosphorylation of ACC was assessed using the HTRF Cisbio (pACC kit).
First, we monitored the activation of AMPK within cells using the indirect activator, compound 1. U-2 OS Flp-In T-REx cells were seeded at 50 K in a 96-well plate and left overnight at 37 C in DMEM GlutaMAX (Thermo Fisher Scientific) supplemented with 10% (vol/vol) FBS and 100 U/ml penicillin G, and 100 μg/ml streptomycin. Cells were treated for 30 mins with varying concentrations of Compound 1 in media lacking FBS and then cells were lysed in 50 μl of Cisbio lysis buffer #1 supplemented with blocking solution as per the manufacturer's protocol (Cisbio). Cells were lysed for 30 mins at room temperature before 16 μl of lysate was incubated with 4 μl of the HTRF antibodies (1:40 dilution of the acceptor and donor (p)ACC antibodies, as per the manufacturers protocol). Lysates were incubated overnight with the antibodies before the 665 nm/620 nm ratio was determined using a MolecularDevices i3 plate reader (with a HTRF cartridge add-on).
To investigate whether treatment of compound 1 with our new identified direct benzocoumarin AMPK activator, compound 2, could improve the activation of AMPK, cells were treated for 30 mins with varying concentrations of compound 1 in the presence or absence of 11 μM compound 2. Cells were cultured and analysed according to example 1.

AMPK β1 WT = test: pACC HTRF assay in AMPKβ1/β2 double knockout U-2 OS cells stably expressing β1 WT; type: cell-based, human
Description: (§1) The β1 WT or β1 S108A mutant were stably expressed in AMPKβ1β2 double knockout cells and were treated with varying concentrations of compound 1 for 30 mins at 37 C in the presence or absence of 11 μM of compound 2. Phosphorylation of ACC was assessed using the HTRF Cisbio (pACC kit).
(§2) AMPKβ1/β2 double knockout U-2 OS Flp-In™ T-Rex™ cell lines were generated by Horizon Discovery (Cambridge, UK). Cells were genotyped and analysed by Western blotting to confirm that there was a complete knockout of AMPKβ1/β2. We took these AMPKβ1/β2 double knockout cells, and re-introduced the expression of human β1 wild-type (WT) or a β1 Serine 108 to alanine mutation (S108A). This was achieved using the Flp-In™ system (Invitrogen) present in this cell line and stable cells expressing β1 WT or a β1 S108A mutant were generated according to the manufacturers' protocols. Re-expression of the β1 subunit was confirmed by Western blot analysis.
(§3) Cells stably expressing β1 WT or a β1 S108A mutant were treated with varying concentrations of Compound 1 in the presence or absence of a fixed concentration (11 μM) of compound 2. Cells lysates were subjected to the pACC HTRF (Cisbio) assay to determine the level of phosphorylation of the AMPK substrate, ACC, in cell lysates, as in example 1.

[1] = system: ADaM-binding site AMPK mutant (β1 S108A); test: pACC HTRF assay in AMPKβ1/β2 double knockout U-2 OS cells stably expressing β1 S108A mutant; type: cell-based, human; conditions: fixed 11 μM compound 2 with varying concentrations of compound 1
Description: as §1, §2, §3

[2] = system: AMPK complexes containing the β2 isoform subunit; test: pACC HTRF assay in AMPKβ1/β2 double knockout U-2 OS cells stably expressing β2 WT isoform; type: cell-based, human; conditions: fixed 11 μM compound 2 with varying concentrations of compound 1
Description: U-2 OS cells AMPKβ1β2 double knockout cells stably expressing AMPK β2 were treated with varying concentrations of compound 1 for 30 mins at 37 C in the presence or absence of 11 μM of compound 2. Phosphorylation of ACC was assessed using the HTRF Cisbio (pACC kit).
We took AMPKβ1/β2 double knockout cells, and re-introduced the expression of the human β2 WT isoform. […] Cells stably expressing β2 WT were treated with varying concentrations of Compound 1 in the absence or presence of a fixed concentration (11 μM) of compound 2. Cell lysates were subjected to the pACC HTRF (Cisbio) assay to determine the level of phosphorylation of the AMPK substrate, ACC, in cell lysates, as in Example 1. […] Direct activation AMPK by binding to the ADaM site was impaired or abolished in β2-containing complexes in vitro and in cells. The inability of compound 2 to improve the activation of AMPK by compound 1, was consistent with the knowledge we have generated showing the compound 2 binds to the ADaM-site of AMPK. […] Low doses of compound 1 in combination with compound 2 could activate AMPK.

Row | Compound | phosphorylation of the AMPK substrate ACC (ratio 665/620 nm) (AMPK) | phosphorylation of the AMPK substrate ACC (ratio 665/620 nm) (AMPK; listed as compound 1) | pACC (fold increase in activation) (AMPK β1 WT; cells stably expressing β1 WT, varying concentrations, 30 mins at 37 C) | effect on the dose-response curve of compound 1 (pACC) (AMPK; fixed 11 μM compound 2 with varying concentrations of compound 1, 30 mins) | effect on the dose-response curve of compound 1 (pACC) (AMPK β1 WT; β1 WT cells, fixed 11 μM compound 2 with varying concentrations of compound 1) | effect on the dose-response curve of compound 1 (pACC) [1] | effect on the dose-response curve of compound 1 (pACC) [2]
1 | O=c1oc2cc(O)ccc2c2ccccc12 [Compound 1, 3-hydroxy-6H-benzo[c]chromen-6-one] | increased the phosphorylation of the AMPK substrate, ACC, in a dose-dependent manner | increases the phosphorylation of the AMPK substrate, ACC, in a dose-dependent manner | able to dose-dependently increase pACC | – | – | – | –
2 | COc1cc(O)c2c(c1)c(=O)oc1cc(O)ccc12 [Compound 2, 3,10-Dihydroxy-8-methoxy-6H-benzo[c]chromen-6-one] | – | – | – | left-shift in the dose-response curve | capable of causing a left-shift and improvement | not able to cause a left-shift and improvement | did not improve the dose-response curve
